Laboratory results reported in BindingDB's records for doi:10.1124/jpet.301.1.37 (National Institutes of Health, 2002).
Several values for one entry are separate records, joined by “and”; a condition that tells them apart may be missing. Equal entries are not always repeated.

How the values were obtained:
VIP peptides [1] = molecular target: T1, VIP peptides (Homo sapiens, UniProt P01282)
T1 sequence (P01282 whole entry): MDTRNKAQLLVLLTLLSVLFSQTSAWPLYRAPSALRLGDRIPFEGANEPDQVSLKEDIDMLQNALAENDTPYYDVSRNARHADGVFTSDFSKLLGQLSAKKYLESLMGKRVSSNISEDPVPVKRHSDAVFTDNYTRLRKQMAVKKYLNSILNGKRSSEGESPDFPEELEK

VIP peptides [2] = molecular target: T2, VIP peptides (Cavia porcellus, UniProt P04566)
T2 sequence (P04566 whole entry): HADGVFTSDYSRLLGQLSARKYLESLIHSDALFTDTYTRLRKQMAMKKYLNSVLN

## CC[C@H](C)[C@H](NC(=O)[C@H](CO)NC(=O)[C@H](CC(N)=O)NC(=O)[C@H](CC(C)C)NC(=O)[C@H](Cc1ccc(O)cc1)NC(=O)[C@H](CCCCN)NC(=O)[C@H](CCCCN)NC(=O)[C@@H](NC(=O)[C@H](C)NC(=O)[C@H](CCSC)NC(=O)[C@H](CCC(N)=O)NC(=O)[C@H](CCCCN)NC(=O)[C@H](CCCN=C(N)N)NC(=O)[C@@H](CC(C)C)NC(=O)[C@H](CCCN=C(N)N)NC(=O)[C@@H](NC(=O)[C@H](Cc1ccc(O)cc1)NC(=O)[C@H](CC(N)=O)NC(=O)[C@H](CC(=O)O)NC(=O)[C@@H](NC(=O)[C@H](Cc1ccccc1)NC(=O)[C@@H](NC(=O)[C@H](C)NC(=O)[C@H](CC(=O)O)NC(=O)[C@H](CO)NC(=O)[C@@H](N)Cc1cnc[nH]1)C(C)C)[C@@H](C)O)[C@@H](C)O)C(C)C)C(=O)N[C@@H](CC(C)C)C(=O)N[C@@H](CC(N)=O)C(N)=O [VIP [D-Leu13]]
VIP peptides [1]
  Ki: 13.5 nM and 23.4 nM and 16.9 nM
VIP peptides [2]
  Ki: 51.2 nM

## CC[C@H](C)[C@H](NC(=O)[C@H](CO)NC(=O)[C@@H](CC(N)=O)NC(=O)[C@H](CC(C)C)NC(=O)[C@H](Cc1ccc(O)cc1)NC(=O)[C@H](CCCCN)NC(=O)[C@H](CCCCN)NC(=O)[C@@H](NC(=O)[C@H](C)NC(=O)[C@H](CCSC)NC(=O)[C@H](CCC(N)=O)NC(=O)[C@H](CCCCN)NC(=O)[C@H](CCCN=C(N)N)NC(=O)[C@H](CC(C)C)NC(=O)[C@H](CCCN=C(N)N)NC(=O)[C@@H](NC(=O)[C@H](Cc1ccc(O)cc1)NC(=O)[C@H](CC(N)=O)NC(=O)[C@H](CC(=O)O)NC(=O)[C@@H](NC(=O)[C@H](Cc1ccccc1)NC(=O)[C@@H](NC(=O)[C@H](C)NC(=O)[C@H](CC(=O)O)NC(=O)[C@H](CO)NC(=O)[C@@H](N)Cc1cnc[nH]1)C(C)C)[C@@H](C)O)[C@@H](C)O)C(C)C)C(=O)N[C@@H](CC(C)C)C(=O)N[C@@H](CC(N)=O)C(N)=O [VIP [D-Asn24]]
VIP peptides [1]
  Ki: 2.6 nM and 11.8 nM and 12.6 nM
VIP peptides [2]
  Ki: 60.3 nM

## H-HSDAVFTANYTRLRKQMAVKKYLNSILN-NH2 [VIP Ala8]
VIP peptides [1]
  Ki: 0.17 nM and 1.6 nM and 1.2 nM
VIP peptides [2]
  Ki: 1.2 nM

## H-HSDAVFTDNYTRLRKQMAVKKYLNSILA-NH2 [VIP Ala28]
VIP peptides [1]
  Ki: 0.54 nM and 2.7 nM and 2.8 nM
VIP peptides [2]
  Ki: 4.3 nM

## CC[C@H](C)[C@H](NC(=O)[C@H](CO)NC(=O)[C@H](CC(N)=O)NC(=O)[C@H](CC(C)C)NC(=O)[C@H](Cc1ccc(O)cc1)NC(=O)[C@H](CCCCN)NC(=O)[C@H](CCCCN)NC(=O)[C@@H](NC(=O)[C@H](C)NC(=O)[C@H](CCSC)NC(=O)[C@H](CCC(N)=O)NC(=O)[C@H](CCCCN)NC(=O)[C@H](CCCN=C(N)N)NC(=O)[C@H](CC(C)C)NC(=O)[C@H](CCCN=C(N)N)NC(=O)[C@H](NC(=O)[C@H](Cc1ccc(O)cc1)NC(=O)[C@H](CC(N)=O)NC(=O)[C@H](CC(=O)O)NC(=O)[C@@H](NC(=O)[C@H](Cc1ccccc1)NC(=O)[C@@H](NC(=O)[C@H](C)NC(=O)[C@H](CC(=O)O)NC(=O)[C@H](CO)NC(=O)[C@@H](N)Cc1cnc[nH]1)C(C)C)[C@@H](C)O)[C@H](C)O)C(C)C)C(=O)N[C@@H](CC(C)C)C(=O)N[C@@H](CC(N)=O)C(N)=O [VIP [D-Thr11]]
VIP peptides [1]
  Ki: 54.9 nM and 91.2 nM and 110 nM
VIP peptides [2]
  Ki: 54.9 nM

## CC[C@H](C)[C@H](NC(=O)[C@H](CO)NC(=O)[C@H](CC(N)=O)NC(=O)[C@H](CC(C)C)NC(=O)[C@H](Cc1ccc(O)cc1)NC(=O)[C@H](CCCCN)NC(=O)[C@H](CCCCN)NC(=O)[C@@H](NC(=O)[C@H](C)NC(=O)[C@H](CCSC)NC(=O)[C@H](CCC(N)=O)NC(=O)[C@H](CCCCN)NC(=O)[C@H](CCCN=C(N)N)NC(=O)[C@H](CC(C)C)NC(=O)[C@H](CCCN=C(N)N)NC(=O)[C@@H](NC(=O)[C@@H](Cc1ccc(O)cc1)NC(=O)[C@H](CC(N)=O)NC(=O)[C@H](CC(=O)O)NC(=O)[C@@H](NC(=O)[C@H](Cc1ccccc1)NC(=O)[C@@H](NC(=O)[C@H](C)NC(=O)[C@H](CC(=O)O)NC(=O)[C@H](CO)NC(=O)[C@@H](N)Cc1cnc[nH]1)C(C)C)[C@@H](C)O)[C@@H](C)O)C(C)C)C(=O)N[C@@H](CC(C)C)C(=O)N[C@@H](CC(N)=O)C(N)=O [VIP [D-Tyr10]]
VIP peptides [1]
  Ki: 3.7 nM and 32.3 nM and 24.5 nM
VIP peptides [2]
  Ki: 23.4 nM

## CC[C@H](C)[C@H](NC(=O)[C@H](CO)NC(=O)[C@H](CC(N)=O)NC(=O)[C@@H](CC(C)C)NC(=O)[C@H](Cc1ccc(O)cc1)NC(=O)[C@H](CCCCN)NC(=O)[C@H](CCCCN)NC(=O)[C@@H](NC(=O)[C@H](C)NC(=O)[C@H](CCSC)NC(=O)[C@H](CCC(N)=O)NC(=O)[C@H](CCCCN)NC(=O)[C@H](CCCN=C(N)N)NC(=O)[C@H](CC(C)C)NC(=O)[C@H](CCCN=C(N)N)NC(=O)[C@@H](NC(=O)[C@H](Cc1ccc(O)cc1)NC(=O)[C@H](CC(N)=O)NC(=O)[C@H](CC(=O)O)NC(=O)[C@@H](NC(=O)[C@H](Cc1ccccc1)NC(=O)[C@@H](NC(=O)[C@H](C)NC(=O)[C@H](CC(=O)O)NC(=O)[C@H](CO)NC(=O)[C@@H](N)Cc1cnc[nH]1)C(C)C)[C@@H](C)O)[C@@H](C)O)C(C)C)C(=O)N[C@@H](CC(C)C)C(=O)N[C@@H](CC(N)=O)C(N)=O [VIP [D-Leu23]]
VIP peptides [1]
  Ki: 3.1 nM and 19.5 nM and 18.6 nM
VIP peptides [2]
  Ki: 41.6 nM

## H-HADAVFTDNYTRLRKQMAVKKYLNSILN-NH2 [VIP Ala2]
VIP peptides [1]
  Ki: 0.43 nM and 3.6 nM and 2.7 nM
VIP peptides [2]
  Ki: 2.6 nM

## CC[C@H](C)[C@H](NC(=O)[C@H](CO)NC(=O)[C@H](CC(N)=O)NC(=O)[C@H](CC(C)C)NC(=O)[C@H](Cc1ccc(O)cc1)NC(=O)[C@H](CCCCN)NC(=O)[C@H](CCCCN)NC(=O)[C@@H](NC(=O)[C@H](C)NC(=O)[C@H](CCSC)NC(=O)[C@H](CCC(N)=O)NC(=O)[C@@H](CCCCN)NC(=O)[C@H](CCCN=C(N)N)NC(=O)[C@H](CC(C)C)NC(=O)[C@H](CCCN=C(N)N)NC(=O)[C@@H](NC(=O)[C@H](Cc1ccc(O)cc1)NC(=O)[C@H](CC(N)=O)NC(=O)[C@H](CC(=O)O)NC(=O)[C@@H](NC(=O)[C@H](Cc1ccccc1)NC(=O)[C@@H](NC(=O)[C@H](C)NC(=O)[C@H](CC(=O)O)NC(=O)[C@H](CO)NC(=O)[C@@H](N)Cc1cnc[nH]1)C(C)C)[C@@H](C)O)[C@@H](C)O)C(C)C)C(=O)N[C@@H](CC(C)C)C(=O)N[C@@H](CC(N)=O)C(N)=O [VIP [D-Lys15]]
VIP peptides [1]
  Ki: 2 nM and 13.8 nM and 10.9 nM
VIP peptides [2]
  Ki: 19.9 nM

## H-ASDAVFTDNYTRLRKQMAVKKYLNSILN-NH2 [VIP Ala1]
VIP peptides [1]
  Ki: 16.9 nM and 89.1 nM and 64.5 nM
VIP peptides [2]
  Ki: 95.4 nM

## CC[C@H](C)[C@H](NC(=O)[C@H](CO)NC(=O)[C@H](CC(N)=O)NC(=O)[C@H](CC(C)C)NC(=O)[C@H](Cc1ccc(O)cc1)NC(=O)[C@H](CCCCN)NC(=O)[C@H](CCCCN)NC(=O)[C@@H](NC(=O)[C@H](C)NC(=O)[C@H](CCSC)NC(=O)[C@H](CCC(N)=O)NC(=O)[C@H](CCCCN)NC(=O)[C@H](CCCN=C(N)N)NC(=O)[C@H](CC(C)C)NC(=O)[C@H](CCCN=C(N)N)NC(=O)[C@@H](NC(=O)[C@H](Cc1ccc(O)cc1)NC(=O)[C@H](CC(N)=O)NC(=O)[C@@H](CC(=O)O)NC(=O)[C@@H](NC(=O)[C@H](Cc1ccccc1)NC(=O)[C@@H](NC(=O)[C@H](C)NC(=O)[C@H](CC(=O)O)NC(=O)[C@H](CO)NC(=O)[C@@H](N)Cc1cnc[nH]1)C(C)C)[C@@H](C)O)[C@@H](C)O)C(C)C)C(=O)N[C@@H](CC(C)C)C(=O)N[C@@H](CC(N)=O)C(N)=O [VIP [D-Asp8]]
VIP peptides [1]
  Ki: 110 nM and 138 nM and 178 nM
VIP peptides [2]
  Ki: 275 nM

## CC[C@H](C)[C@H](NC(=O)[C@H](CO)NC(=O)[C@H](CC(N)=O)NC(=O)[C@H](CC(C)C)NC(=O)[C@H](Cc1ccc(O)cc1)NC(=O)[C@H](CCCCN)NC(=O)[C@H](CCCCN)NC(=O)[C@@H](NC(=O)[C@H](C)NC(=O)[C@H](CCSC)NC(=O)[C@H](CCC(N)=O)NC(=O)[C@H](CCCCN)NC(=O)[C@H](CCCN=C(N)N)NC(=O)[C@H](CC(C)C)NC(=O)[C@H](CCCN=C(N)N)NC(=O)[C@@H](NC(=O)[C@H](Cc1ccc(O)cc1)NC(=O)[C@H](CC(N)=O)NC(=O)[C@H](CC(=O)O)NC(=O)[C@@H](NC(=O)[C@H](Cc1ccccc1)NC(=O)[C@@H](NC(=O)[C@H](C)NC(=O)[C@H](CC(=O)O)NC(=O)[C@H](CO)NC(=O)[C@H](N)Cc1cnc[nH]1)C(C)C)[C@@H](C)O)[C@@H](C)O)C(C)C)C(=O)N[C@@H](CC(C)C)C(=O)N[C@@H](CC(N)=O)C(N)=O [VIP [D-His1]]
VIP peptides [1]
  Ki: 0.74 nM and 4.1 nM and 3.7 nM
VIP peptides [2]
  Ki: 22.4 nM

## CC[C@H](C)[C@H](NC(=O)[C@H](CO)NC(=O)[C@H](CC(N)=O)NC(=O)[C@H](CC(C)C)NC(=O)[C@H](Cc1ccc(O)cc1)NC(=O)[C@H](CCCCN)NC(=O)[C@H](CCCCN)NC(=O)[C@@H](NC(=O)[C@H](C)NC(=O)[C@H](CCSC)NC(=O)[C@H](CCC(N)=O)NC(=O)[C@H](CCCCN)NC(=O)[C@H](CCCN=C(N)N)NC(=O)[C@H](CC(C)C)NC(=O)[C@H](CCCN=C(N)N)NC(=O)[C@@H](NC(=O)[C@H](Cc1ccc(O)cc1)NC(=O)[C@H](CC(N)=O)NC(=O)[C@H](CC(=O)O)NC(=O)[C@@H](NC(=O)[C@H](Cc1ccccc1)NC(=O)[C@@H](NC(=O)[C@H](C)NC(=O)[C@H](CC(=O)O)NC(=O)[C@H](CO)NC(=O)[C@@H](N)Cc1cnc[nH]1)C(C)C)[C@@H](C)O)[C@@H](C)O)C(C)C)C(=O)N[C@@H](CC(C)C)C(=O)N[C@@H](CC(N)=O)C(=O)O [CAS_37221-79-7]
VIP peptides [1]
  Ki: 1.7 nM and 1.6 nM
VIP peptides [2]
  Ki: 2.5 nM
